Laboratory results from patent publication US11267800B2, “Cyclohexyl acid triazole azines as LPA antagonists” (BRISTOL-MYERS SQUIBB COMPANY, priority 2017, dated 2022).

Biological target: T1, human LPA1 (Homo sapiens, UniProt Q92633)
T1 construct: expressed in transfected cells; host or cells: Chinese hamster ovary (CHO) cells
Experiment: LPA1 functional antagonist assay (calcium flux)
Format: cell-based
Conditions: CHO cells overexpressing human LPA1; inhibition of calcium flux induced by 10 nM LPA; read-out: hLPA1 IC50
In short: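 IC50 values come from 4-parameter logistic fits and mark 50% block of the calcium flux evoked by 10 nM LPA. Human LPA1-overexpressing CHO cells were calcium-dye loaded at 37 °C, then given test compound (0.08 nM–5 μM, 0.5% DMSO, HEPES-buffered HBSS with 0.1% fatty-acid-free BSA) for 20 min at room temperature before agonist.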

T1 sequence (Q92633 whole entry): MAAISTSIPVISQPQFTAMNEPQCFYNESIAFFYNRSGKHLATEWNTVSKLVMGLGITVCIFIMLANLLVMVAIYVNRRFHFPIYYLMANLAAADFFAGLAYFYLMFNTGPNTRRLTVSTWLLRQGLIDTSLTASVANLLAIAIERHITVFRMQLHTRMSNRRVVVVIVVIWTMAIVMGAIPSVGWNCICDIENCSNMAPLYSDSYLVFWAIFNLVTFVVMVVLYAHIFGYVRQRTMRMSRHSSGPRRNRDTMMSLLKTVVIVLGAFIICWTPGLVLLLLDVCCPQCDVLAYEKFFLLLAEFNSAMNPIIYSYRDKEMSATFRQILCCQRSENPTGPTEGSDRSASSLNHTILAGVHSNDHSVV

SMILES | IC50
Cc1nc(-c2nnn(C)c2CNc2nccc(C3(C)CC(F)(F)C3)n2)ccc1O[C@H]1CCC[C@H](C(=O)O)C1 [Example 167] | 55 nM
Cc1nc(-c2nnn(C)c2Nc2nccc(OCCCF)n2)ccc1O[C@H]1CCC[C@H](C(=O)O)C1 [Example 395] | 51 nM
Cc1nc(-c2nnn(C)c2CNc2cccc(Cc3ccccc3)n2)ccc1O[C@H]1CCC[C@H](C(=O)O)C1 [Example 397] | 1030 nM
Cc1nc(-c2nnn(C)c2CNc2nnccc2OC2CC2)ccc1O[C@H]1CCC[C@H](C(=O)O)C1 [Example 218, (1S,3S)-3-((6-(5-(((4-Cyclopropoxy-pyridazin-3-yl)amino)methyl)-1-methyl-1H-1,2,3-triazol-4-yl)-2-methylpyridin-3-yl)oxy)cyclohexane-1-carboxylic acid] | 213 nM
Cc1nc(-c2nnn(C)c2CNc2nccc(Oc3ccc(F)c(F)c3)n2)ccc1O[C@H]1CCC[C@H](C(=O)O)C1 [Example 101] | 28 nM
CSc1ccnc(OCc2c(-c3ccc(O[C@H]4CCC[C@H](C(=O)O)C4)c(C)n3)nnn2C)n1 [Example 367] | 7.9 nM
Cc1nc(-c2nnn(C)c2CNc2cc(C(F)(F)F)ncn2)ccc1O[C@H]1CCC[C@H](C(=O)O)C1 [Example 312] | 139 nM
CC(C)c1ccnc(NCc2c(-c3ccc(O[C@H]4CCC[C@H](C(=O)O)C4)cn3)nnn2C)n1 [Example 35] | 28 nM
Cc1nc(-c2nnn(C)c2CNc2nccc(OC3CC3)n2)c(F)cc1O[C@H]1CCC[C@H](C(=O)O)C1 [Example 383] | 227 nM
Cc1nc(-c2nnn(C)c2CNc2cccc(C3CC3)n2)ccc1O[C@H]1CCC[C@H](C(=O)O)C1 [Example 399] | 531 nM
CCCCc1cccc(Nc2c(-c3ccc(O[C@H]4CCC[C@H](C(=O)O)C4)cn3)nnn2C)n1 [Example 245, (1S,3S)-3-((6-(5-((6-butylpyridin-2-yl)amino)-1-methyl-1H-1,2,3-triazol-4-yl)pyridin-3-yl)oxy)cyclohexane-1-carboxylic acid] | 32 nM
Cc1nc(-c2nnn(C)c2COc2nccc(-c3cnccn3)n2)ccc1O[C@H]1CCC[C@H](C(=O)O)C1 [Example 316] | 263 nM
Cc1nc(-c2nnn(C)c2Nc2cccc(OCc3ccccc3)n2)ccc1O[C@H]1CCC[C@H](C(=O)O)C1 [Example 237, (1S,3S)-3-((6-(5-((6-(benzyloxy)pyridin-2-yl)amino)-1-methyl-1H-1,2,3-triazol-4-yl)-2-methylpyridin-3-yl)oxy)cyclohexane-1-carboxylic acid] | 55 nM
CCCOc1cccc(Nc2c(-c3ccc(O[C@H]4CCC[C@H](C(=O)O)C4)c(C)n3)nnn2C)n1 [Example 242, (1S,3S)-3-((2-methyl-6-(1-methyl-5-((6-propoxypyridin-2-yl)amino)-1H-1,2,3-triazol-4-yl)pyridin-3-yl)oxy) cyclohexane-1-carboxylic acid] | 11 nM
Cc1nc(-c2nnn(C)c2CNc2nccc(Cc3ccccc3)n2)ccc1O[C@H]1CCC[C@H](C(=O)O)C1 [Example 11] | 103 nM
CCc1ncnc(NCc2c(-c3ccc(O[C@H]4CCC[C@H](C(=O)O)C4)cn3)nnn2C)n1 [Example 224, (1S,3S)-3-((6-(5-(((4-ethyl-1,3,5-triazin-2-yl)amino)methyl)-1-methyl-1H-1,2,3-triazol-4-yl)pyridin-3-yl)oxy) cyclohexane-1-carboxylic acid] | 813 nM
COc1cncc(OCc2c(-c3ccc(O[C@H]4CCC[C@H](C(=O)O)C4)c(C)n3)nnn2C)n1 [Example 307] | 2990 nM

SMILES | IC50
CCc1cc(OCc2c(-c3ccc(O[C@H]4CCC[C@H](C(=O)O)C4)cn3)nnn2C)ncn1 [Example 352] | 38 nM
Cc1nc(-c2nnn(C)c2CNc2ncc(F)c(-c3ccccc3F)n2)ccc1O[C@H]1CCC[C@H](C(=O)O)C1 [Example 123] | 79 nM
Cc1nc(-c2nnn(C)c2COc2nccc(COC3CC3)n2)ccc1O[C@H]1CCC[C@H](C(=O)O)C1 [Example 321] | 37 nM
[2H]C([2H])([2H])Oc1cc(OCc2c(-c3ccc(O[C@H]4CCC[C@H](C(=O)O)C4)c(C)n3)nnn2C)ncn1 [Example 297] | 16 nM
Cc1nc(-c2nnn(C)c2CNc2ccnc(OC(C)C(F)(F)F)n2)ccc1O[C@H]1CCC[C@H](C(=O)O)C1 (some centres unmarked) [Example 98] | 99 nM
Cc1nc(-c2nnn(C)c2COc2nccc(N3CCCC3)n2)ccc1O[C@H]1CCC[C@H](C(=O)O)C1 [Example 338] | 21 nM
Cc1nc(-c2nnn(C)c2COc2cc(NC3CC3)ncn2)ccc1O[C@H]1CCC[C@H](C(=O)O)C1 [Example 303] | 64 nM
Cc1nc(-c2nnn(C)c2CNc2ncc(F)c(-c3ccccc3)n2)ccc1O[C@H]1CCC[C@H](C(=O)O)C1 [Example 143] | 26 nM
CCCc1cccc(Nc2c(-c3ccc(O[C@H]4CCC[C@H](C(=O)O)C4)c(C)n3)nnn2C)n1 [Example 230, (1S,3S)-3-((2-methyl-6-(1-methyl-5-((6-propylpyridin-2-yl)amino)-1H-1,2,3-triazol-4-yl)pyridin-3-yl)oxy) cyclohexane-1-carboxylic acid] | 11 nM
Cn1nnc(-c2ccc(O[C@H]3CCC[C@H](C(=O)O)C3)cn2)c1COc1nccc(C2CC2)n1 [Example 348] | 118 nM
Cc1nc(-c2nnn(C)c2CNc2nc(O)nc(C3CCCCC3)n2)ccc1O[C@H]1CCC[C@H](C(=O)O)C1 [Example 186] | 717 nM
Cc1nc(-c2nnn(C)c2COc2cc(C(F)(F)F)ncn2)ccc1O[C@H]1CCC[C@H](C(=O)O)C1 [Example 295] | 21 nM
Cc1nc(-c2nnn(C)c2CNc2nccc(Oc3cccnc3)n2)ccc1O[C@H]1CCC[C@H](C(=O)O)C1 [Example 86] | 91 nM
CCc1ncnc(OCc2c(-c3ccc(O[C@H]4CCC[C@H](C(=O)O)C4)c(C)n3)nnn2C)n1 [Example 311] | 44 nM
CCc1cc(OCc2c(-c3ccc(O[C@H]4CCC[C@H](c5nnn[nH]5)C4)c(C)n3)nnn2C)ncn1 [Example 257, 4-((4-(5-(((1S,3S)-3-(1H-tetrazol-5-yl)cyclohexyl)oxy)-6-methylpyridin-2-yl)-1-methyl-1H-1,2,3-triazol-5-yl)methoxy)-6-ethylpyrimidine] | 69 nM
Cc1nc(-c2nnn(C)c2CNc2nnc(Cl)cc2C2CC2)ccc1O[C@H]1CCC[C@H](C(=O)O)C1 [Example 216, (1S,3S)-3-((6-(5-(((6-Chloro-4-cyclopropylpyridazin-3-yl)amino)methyl)-1-methyl-1H-1,2,3-triazol-4-yl)-2-methylpyridin-3-yl)oxy) cyclohexane-1-carboxylic acid] | 379 nM
Cc1nc(-c2nnn(C)c2CNc2ncnc(Oc3ccccc3)n2)ccc1O[C@H]1CCC[C@H](C(=O)O)C1 [Example 80] | 135 nM

The remaining lines, values ahead:

IC50 | SMILES
460 nM | CCc1nc(-c2nnn(C)c2CNc2nccc(OC)n2)ccc1O[C@H]1CCC[C@H](C(=O)O)C1 [Example 386]
120 nM | Cc1nc(-c2nnn(C)c2CNc2ncnc(CCC(C)(C)C)n2)ccc1O[C@H]1CCC[C@H](C(=O)O)C1 [Example 206, (1S,3S)-3-((6-(5-(((4-(3,3-Dimethylbutyl)-1,3,5-triazin-2-yl)amino)methyl)-1-methyl-1H-1,2,3-triazol-4-yl)-2-methylpyridin-3-yl)oxy)cyclohexane-1-carboxylic acid]
26 nM | Cc1nc(-c2nnn(C)c2CNc2nccc(C(C)(C)C)n2)ccc1O[C@H]1CCC[C@H](C(=O)O)C1 [Example 1, (1S,3S)-3-((6-(5-(((4-(tert-Butyl)pyrimidin-2-yl)amino)methyl)-1-methyl-1H-1,2,3-triazol-4-yl)-2-methylpyridin-3-yl)oxy)cyclohexanecarboxylic acid]
59 nM | Cc1nc(-c2nnn(C)c2CNc2ncc(F)c(NC(C)C)n2)ccc1O[C@H]1CCC[C@H](C(=O)O)C1 [Example 59]
187 nM | CSc1ccnc(NCc2c(-c3ccc(O[C@H]4CCC[C@H](C(=O)O)C4)c(C)n3)nnn2C)n1 [Example 97]
8 nM | CCCc1ccnc(NCc2c(-c3ccc(O[C@H]4CCC[C@H](C(=O)O)C4)c(C)n3)nnn2C)n1 [Example 7]
66 nM | Cc1nc(-c2nnn(C)c2CNc2nccc(C(F)(F)F)n2)ccc1O[C@H]1CCC[C@H](C(=O)O)C1 [Example 18]
17 nM | Cc1nc(-c2nnn(C)c2CNc2nccc(Oc3cc(F)cc(F)c3)n2)ccc1O[C@H]1CCC[C@H](C(=O)O)C1 [Example 114]
1130 nM | COC(C)(C)c1ccnc(NCc2c(-c3ccc(O[C@H]4CCC[C@H](C(=O)O)C4)c(C)n3)nnn2C)n1 [Example 122]
61 nM | COc1cc(OC)nc(NCc2c(-c3ccc(O[C@H]4CCC[C@H](C(=O)O)C4)c(C)n3)nnn2C)n1 [Example 172]
46 nM | CCCNc1nc(NCc2c(-c3ccc(O[C@H]4CCC[C@H](C(=O)O)C4)c(C)n3)nnn2C)ncc1F [Example 64]
127 nM | CCOc1cc(OCC)nc(NCc2c(-c3ccc(O[C@H]4CCC[C@H](C(=O)O)C4)c(C)n3)nnn2C)n1 [Example 173]
3.4 nM | C=CCCc1ccnc(NCc2c(-c3ccc(O[C@H]4CCC[C@H](C(=O)O)C4)c(C)n3)nnn2C)n1 [Example 260]
63 nM | CCc1ncnc(NCc2c(-c3ccc(O[C@H]4CCC[C@H](C(=O)O)C4)c(C)n3)nnn2C)n1 [Example 194, (1S,3S)-3-((6-(5-(((4-Ethyl-1,3,5-triazin-2-yl)amino)methyl)-1-methyl-1H-1,2,3-triazol-4-yl)-2-methyl-pyridin-3-yl)oxy)cyclohexane-1-carboxylic acid]
27 nM | Cc1nc(-c2nnn(C)c2CNc2ncc(Cl)c(C(C)C)n2)ccc1O[C@H]1CCC[C@H](C(=O)O)C1 [Example 158]
22 nM | Cc1nc(-c2nnn(C)c2CNc2nccc(CC(C)C)n2)ccc1O[C@H]1CCC[C@H](C(=O)O)C1 [Example 126]
